{
  "source": "patent US20150166646A1",
  "about": "“Methods and Compositions for Treating or Diagnosing Melanoma” (The Wistar Institute of Anatomy and Biology, priority 2012, published 2015)",
  "key": {"[1]": {"system": "1205Lu", "experiment": "Western blot of 1205Lu cells treated with PLX4720, GW2580, soluble M-CSFR with or without MCMI-Mφ", "type": "cell-based, human", "settings": "10 μM, 3 days, without MCMI-Mφ"}, "[2]": {"system": "1205Lu xenograft", "experiment": "1205Lu xenograft tumor growth in nude mice", "type": "in vivo", "procedure": "5×10^5 1205Lu cells were subcutaneously injected to Nude mice (Female, 8 weeks old).\nTumor size was measured by a caliper. Tumor volume was calculated by the formula: Volume width×wide×length/2. The results are shown in the plot of FIG. 12A, plotting tumor volume vs. day.\nTumors from the experiment described immediately above were extracted and weighted after mice were euthanized. Tumor weight in grams was plotted vs. control or an agent defined along the x axis of FIG. 22A.\nAll studies were conducted under IACUC guidelines. 7 weeks old BALB/c female nude mice (National Cancer Institute) were injected subcutaneously with 1×10^61205Lu cells in 50% Matrigel (BD Biosciences) in both flanks of mice. When xenografts reached volumes of approximately 100 mm^3, mice were randomly grouped to four groups, with 5 animals per group. GW2580 was dissolved in 0.5% hydroxypropylmethylcellulose (Sigma-Aldrich, MO, USA) and 0.1% Tween 80, and was dosed orally at 160 mg/Kg once daily. […] Tumor volumes were measured every three days using a digital caliber and were calculated using the equation V=0.5×L×W^2. Mice tumors were weighted after mice were euthanized.\n1205Lu cells were injected s.c into both flanks of nude mice. […] ANOVA was used to compare the differences in tumor volume. Mice were euthanized on day 14, peritoneal cells were harvested for flow cytometric analysis of the percent of F4/80 positive macrophages. Immunohistochemistry analysis of the expression of F4/80, phospho-ERK and Ki67 in tumors was conducted. The results are shown in FIGS. 12A-E. See, also the data in FIGS. 3B and 3C"}, "[3]": {"system": "1205Lu xenograft tumor tissues", "experiment": "Immunohistochemistry of xenograft tumors (F4/80, phospho-ERK, Ki67)", "type": "in vivo, mice", "settings": "for Ki67 positive cells in tumor tissues / signaling of phospho-ERK in tumor tissues: compared to control mice; for F4/80 positive macrophages in tumors: day 14"}, "[4]": {"system": "peritoneal F4/80 positive macrophages", "experiment": "Flow cytometric analysis of peritoneal macrophages of treated xenograft mice", "type": "in vivo", "settings": "day 14"}, "[5]": {"system": "1205Lu and A375 melanoma cells", "experiment": "Melanoma cell growth (WST-1) and cell death (Annexin V/7-AAD), cells cultured alone", "type": "cell-based, human"}, "[6]": {"system": "melanoma cells co-cultured with macrophages", "experiment": "Melanoma/macrophage transwell co-culture: growth (WST-1) and cell death", "type": "cell-based, human", "settings": "for macrophage-mediated resistance of melanoma cells to BRAFi (cell growth, anti-cell death effect): co-culture with macrophages in presence of PLX4720, 3 days"}, "[7]": {"system": "1205Lu melanoma cells", "experiment": "Matrigel Transwell invasion assay with 1205Lu-MΦ conditioned medium", "type": "cell-based, human", "settings": "anti-CCL2 10 μg/ml", "procedure": "The invasion assay was conducted with 24-well Transwell inserts (8 μm pore size; Corning). For the MCMI-MΦ-induced invasion assay, 4×10^5 1205Lu melanoma cells in 2% FBS RPMI1640 medium were added in the upper chamber precoated with 50 μl Matrigel (1:3 dilution, BD Biosciences). Media from 1205Lu-MΦ were added to the lower chamber, and R10 medium was used as a control. After overnight incubation, cells that had invaded\nwere fixed and stained with Diff-Quick staining kit (ThermoFisher). The stained cells in 4 randomly chosen fields were counted for each insert (200×). […]\nWe used a Matrigel Transwell assay and compared invasion of melanoma cells attracted to the supernatant of 1205Lu-MΦ alone or the supernatant with an anti-CCL2 monoclonal antibody and a pan-MMPs inhibitor GM6001 (see FIG. 7; see also FIG. 4(A)-(E) of Reference 11)."}, "[8]": {"system": "macrophages", "experiment": "Macrophage growth (WST-1) and cell death", "type": "cell-based, human", "settings": "3 μM, 72 hours"}, "[9]": {"system": "MAPK pathway (pERK) in melanoma cells", "experiment": "Immunoblotting of MAPK signaling in melanoma cells", "type": "cell-based, human", "settings": "VEGF 10 ng/ml and PLX4720 1 μM, 4 hours", "procedure": "Macrophages and melanoma co-culture system was set up as described above. Melanoma cells were cultured same as Proliferation assay for 6 hours and were harvested for Immmunoblotting with following antibodies: phspho-ERK, total ERK, HSP90, phosphor-AKT, AKT, phosphor-NF-κB, phospho-CRAF, total CRAF, Phospho-ARAF, RAB11, Vinculin.\nCells were harvested for immunoblotting with antibodies to pERK, ERK, HSP90. VEGF increases the activation of MAPK pathway (FIG. 10C).\nRelative cell growth and cell death were determined as above."}, "[10]": {"system": "VEGF production in macrophages", "experiment": "Intracellular staining for VEGF production in macrophages", "settings": "4 hours"}, "[11]": {"system": "MAPK pathway in macrophages", "experiment": "Immunoblotting of MAPK signaling in macrophages", "type": "cell-based, human", "settings": "2 hours; accompanied by phosphorylation of CRAF", "procedure": "For macrophages, after monocytes were differentiated to the macrophages, cells in 2% FBS melanoma media were seeded into 15 ml tubes. […] Immunoblotting were performed as described previously. The following antibodies were used: anti-phospho-ERK, ERK, Phospho-VEGFR1, phospho-CRAF, CRAF, PCNA, HSP90 and Rab11.\nCells were harvested for immunoblotting of antibodies to pERK (short expression), pERK, ERK, pCRAF (S338), CRAF, and Rab11 as shown in FIG. 11A. An ELISA assay was performed to determine the activation of RAS in 3 macrophage donors and the melanoma cells A375 and 1205Lu. As see in FIG. 11B, macrophages have high basal level of RAS activation."}, "[12]": {"system": "1205Lu", "experiment": "Western blot for cPARP in 1205Lu cells", "type": "cell-based, human", "settings": "PLX4720 1, 3, 10 μM, 2 days, with or without macrophages"}},
  "data": [
    {"compound": "m-CSFR: soluble M-CSFR", "values": [
      {"measurement": "expression of pERK, pAKT, pS6, pRSK90 (Western blot)", "setting": "[1]", "result": "no change from control"}
    ]},
    {"compound": "COc1ccc(COc2ccc(Cc3cnc(N)nc3N)cc2OC)cc1", "note": "[GW2580, 5-(3-methoxy-40((4-methoxybenzyl)oxy)benzyl)pyrimidine-2,4-diamine]", "values": [
      {"measurement": "efficacy compared with PLX4720 alone", "setting": "[2]; 14 days, GW2580 160 mg/kg vs PLX4720", "result": "less efficacious than PLX4720"},
      {"measurement": "tumor size / tumor growth", "setting": "[2]; after 14 days of oral treatment, GW2580 160 mg/kg, PLX4720 30 mg/ml as printed", "result": "significantly decreased tumor size"},
      {"measurement": "effect on anti-tumor activity of PLX4720 on 1205Lu xenograft tumor growth (FIG. 12A)", "setting": "[2]; oral, 14 days", "result": "increases anti-tumor activity of PLX4720"},
      {"measurement": "Ki67 positive cells in tumor tissues", "setting": "[3]", "result": "fewer"},
      {"measurement": "signaling of phospho-ERK in tumor tissues", "setting": "[3]", "result": "decreased signaling"},
      {"measurement": "F4/80 positive macrophages in tumors", "setting": "[3]", "result": "abolished"},
      {"measurement": "numbers of peritoneal F4/80 positive macrophages", "setting": "[4]", "result": "significant decrease"},
      {"measurement": "melanoma growth and death in vitro", "setting": "[5]; GW2580 alone, 72 hours", "result": "did not have significant effects"},
      {"measurement": "expression of pERK, pAKT, pS6, pRSK90 (Western blot)", "setting": "[1]", "result": "all blots appear similar to col. 4"},
      {"measurement": "macrophage-mediated resistance of melanoma cells to BRAFi (cell growth, anti-cell death effect)", "setting": "[6]", "result": "can reverse macrophage-mediated resistance"}
    ]},
    {"compound": "CNC(=O)[C@H](Cc1c[nH]c2ccccc12)NC(=O)[C@@H](CC(=O)NO)CC(C)C", "note": "[GM6001]", "values": [
      {"measurement": "1205Lu-MΦ supernatant induced melanoma invasion", "setting": "[7]; GM6001 10 μM, Matrigel Transwell", "result": "did not have a significant effect"},
      {"measurement": "melanoma cell invasion (FIG. 7)", "setting": "[7]; MMPi 5 μM, 18 h, 1205Lu-MΦ CM", "result": "marginally increased melanoma cell invasion"}
    ]},
    {"compound": "COc1cc2nccc(Oc3ccc(NC(=O)NC4CC4)c(Cl)c3)c2cc1C(N)=O", "note": "[Lenbatinib]", "values": [
      {"measurement": "macrophage-mediated resistance of melanoma cells to BRAFi (cell growth, anti-cell death effect)", "setting": "[6]", "result": "reverse macrophage-mediated resistance"}
    ]},
    {"compound": "CC(C)(C)c1nc(-c2cccc(NS(=O)(=O)c3c(F)cccc3F)c2F)c(-c2ccnc(N)n2)s1", "note": "[Dabrafenib]", "values": [
      {"measurement": "macrophage apoptosis / cell death", "setting": "[8]", "result": "protects macrophage from cell death"}
    ]},
    {"compound": "VEGF", "values": [
      {"measurement": "rescue of PLX4720-induced cell growth inhibition", "setting": "[5]; VEGF 10 ng/ml with PLX4720, 3 days", "result": "rescued PLX4720-induced cell growth inhibition"},
      {"measurement": "MAPK pathway in melanoma cells", "setting": "[9]", "result": "activated the MAPK pathway"}
    ]},
    {"compound": "CCCS(=O)(=O)Nc1ccc(F)c(C(=O)c2c[nH]c3ncc(Cl)cc23)c1F", "note": "[PLX4720]", "values": [
      {"measurement": "production of VEGF in macrophages", "setting": "[10]", "result": "significantly increased"},
      {"measurement": "Ki67 positive cells in tumor tissues", "setting": "[3]", "result": "fewer"},
      {"measurement": "signaling of phospho-ERK in tumor tissues", "setting": "[3]", "result": "decreased signaling"},
      {"measurement": "F4/80 positive macrophages in tumors", "setting": "[3]", "result": "significant decrease"},
      {"measurement": "numbers of peritoneal F4/80 positive macrophages", "setting": "[4]", "result": "amplified this effect"},
      {"measurement": "macrophage apoptosis / cell death", "setting": "[8]", "result": "protects macrophage from apoptosis"},
      {"measurement": "BRAFi-induced growth inhibition and cell death of melanoma cells when co-cultured with macrophages", "setting": "[6]; 0-10 μM, 3 days, 1205Lu, A375, SK-MEL-28, 451Lu", "result": "significantly protected from PLX4720-induced growth inhibition and cell death"},
      {"measurement": "MAPK signaling in macrophages", "setting": "[11]", "result": "strongly activated"},
      {"measurement": "cPARP gel (Western blot)", "setting": "[12]", "result": "showed a second blot"}
    ]}
  ]
}
